Results: patent publication US8198268B2, “Tianeptine sulfate salt forms and methods of making and using the same” (Janssen Biotech, Inc., priority 2008, dated 2012)

Tested on: mouse
Assay: Behavioral despair test in mouse (forced swim test), IP administration
[1] = STUDY A, 150 mg/kg i.p. 30 min prior to testing, 150 mg/kg
[2] = STUDY A, 150 mg/kg i.p. 30 min prior to testing, hemisulfate monohydrate, 150 mg/kg

Q: What does the source list for `CN1c2ccccc2C(NCCCCCCC(=O)O)c2ccc(Cl)cc2S1(=O)=O` (stereo not shown) [tianeptine sodium, reference compound]?
A: Duration of Immobility % change from control [1]: −50%; Duration of Immobility mean ± s.e.m. [1]: 102.0 ± 13.0 s

Q: For `CN(C)CCCN1c2ccccc2CCc2ccccc21` [Imipramine, reference compound], which “Duration of Immobility mean ± s.e.m.” value (STUDY A, 32 mg/kg i.p. 30 min prior to testing) is on record?
A: The value was 64.1 ± 16.1 s.

Q: And the “Duration of Immobility % change from control” value (STUDY A, 32 mg/kg i.p. 30 min prior to testing, 32 mg/kg)?
A: The value was −68%.

Q: And the “Duration of Immobility % change from control” value (STUDY A, 32 mg/kg i.p. 30 min prior to testing, listed as imipramine hydrochloride, 32 mg/kg)?
A: Its value is −68%.

Q: And the “Duration of Immobility % change from control” value (STUDY B, 32 mg/kg i.p. 30 min prior to testing, 32 mg/kg)?
A: The value was −88%.

Q: And the “Duration of Immobility % change from control” value (STUDY B, 32 mg/kg i.p. 30 min prior to testing, listed as imipramine hydrochloride, 32 mg/kg)?
A: Its value is −88%.

Q: How did the “Duration of Immobility mean ± s.e.m.” value (STUDY A, 100 mg/kg i.p. 30 min prior to testing) turn out when `CN1c2ccccc2C(NCCCCCCC(=O)O)c2ccc(Cl)cc2S1(=O)=O` (stereo not shown) [tianeptine hemisulfate monohydrate, 7-[(3-chloro-6,11-dihydro-6-methyldibenzo[c,f][1,2]thiazepin-11-yl)amino]heptanoic acid S,S-dioxide hemisulfate monohydrate] was run?
A: The value was 83.1 ± 21.2 s.

Q: What about the “Duration of Immobility % change from control” value (STUDY A, 100 mg/kg i.p. 30 min prior to testing, hemisulfate monohydrate, 100 mg/kg) of the same compound?
A: The value was −59%.

Q: What about the “Duration of Immobility % change from control” value [2] of the same compound?
A: Its value is −43%.

Q: What about the “Duration of Immobility mean ± s.e.m.” value [2] of the same compound?
A: The value was 115.5 ± 13.6 s.

Q: What about the “Duration of Immobility mean ± s.e.m.” value (STUDY A, 200 mg/kg i.p. 30 min prior to testing) of the same compound?
A: The value was 108.8 ± 19.8 s.

Q: What about the “Duration of Immobility % change from control” value (STUDY A, 200 mg/kg i.p. 30 min prior to testing, hemisulfate monohydrate, 200 mg/kg) of the same compound?
A: The value was −46%.

Q: And the “abnormal behavior prior to the test” value (STUDY B, 30 mg/kg and 60 mg/kg i.p.)?
A: Its value is “abnormal behavior (including Straub tail and circling) was observed in all ten mice”.

Q: And the “Duration of Immobility mean ± s.e.m.” value (STUDY B, 30 mg/kg i.p. 30 min prior to testing)?
A: The value was 25.8 ± 8.7 s.

Q: And the “Duration of Immobility % change from control” value (STUDY B, 30 mg/kg i.p. 30 min prior to testing, hemisulfate monohydrate, 30 mg/kg)?
A: The value was −86%.

Q: What about the “Duration of Immobility mean ± s.e.m.” value (STUDY B, 60 mg/kg i.p. 30 min prior to testing) of the same compound?
A: Its value is 29.7 ± 9.7 s.

Q: What about the “Duration of Immobility % change from control” value (STUDY B, 60 mg/kg i.p. 30 min prior to testing, hemisulfate monohydrate, 60 mg/kg) of the same compound?
A: Its value is −83%.

Q: And the “conclusion of STUDIES A and B” value (dose-range 30 mg/kg-200 mg/kg i.p.)?
A: Its value is “antidepressant-like activity”.
